In data set [1] the test system is L. major IR‐173 promastigotes. Briefly: Antipromastigote assay (resazurin). Conditions: Leishmania major, read-out: Antipromastigote activity, IC50 ±SD, IR‐173. The data set is classed as cell-based. On the procedure:
(§1) Antipromastigote assay: The antipromastigote activity of synthesized compounds was evaluated as described previously by […] al.[47] using L. donovani 9515 (MHOM/IN/95/9515) and L. major IR-173 (MHOM/IR/-173). […] Al dri c h) […] The prom astigotes were […] 25 °C. […] Therm ofisher Scientific) in the presence of: […] com pounds for IC50 determination. […] blank. […] Em etine served as the standard cytotoxic drug. […] References […]
In general terms: Resazurin is reduced to fluorescent resorufin, in cell work by metabolically active cells.

The nature of data set [2]: Macrophage toxicity, resazurin assay. The data set is classed as cell-based. Particulars: human, differentiated THP-1 cells (macrophages), differentiated THP‐1 macrophages, read-out: Cytotoxicity, THP‐1, IC50±SD. On the procedure:
Macrophage toxicity: Toxicity of the compounds on the differentiated host THP‐1 cells were also evaluated. As mentioned, duplicate plates of differentiated THP‐1 cells were prepared during the anti‐amastigote assay. These plates were incubated for 72 hours to differentiate, instead of replacing the growth medium with parasite‐containing medium after 48 hours. […] Blanks were growth medium without cells. The treated plates were incubated for 72 hours, followed by the addition of 50 μL of resazurin solution (0.01 % in PBS) to each well and 24‐hour incubation.

Another data set has as its system HEK‐293 cells. Briefly: Basal cytotoxicity, resazurin assay. Particulars: read-out: Cytotoxicity, HEK‐293, IC50±SD; HEK‐293 cells, resazurin.
A short description of data set [3]: Basal cytotoxicity, resazurin assay. Conditions: human, HEK-293 cells (ATCC CRL 1573), Cytotoxicity, HEK‐293, IC50±SD, HEK‐293 cells, resazurin.
Data set [4] deals with L. donovani 9515 promastigotes. Briefly: Antipromastigote assay (resazurin). The data set is classed as cell-based, Leishmania donovani. Conditions: for IC50: Leishmania donovani, read-out: Antipromastigote activity, IC50 ±SD, 9515. As for the experimental part: as §1
In data set [5] the test system is L. donovani 9515 amastigotes. Nature of the data set: Anti‐amastigote assay, intramacrophage (THP‐1), resazurin. The data set is classed as cell-based, Leishmania donovani. Particulars: for Selectivity index SI4: L. donovani 9515: IC50 THP‐1/IC50 amastigote; for IC50: Leishmania donovani, THP-1, L. donovani 9515 intramacrophage amastigotes, read-out: Anti‐amastigote activity, IC50 ±SD, 9515. As for the experimental part:
(§2) For the anti‐amastigote assay, differentiated plates were carefully washed with PBS, followed by the addition of 200 μL of stationary phase promastigotes in RPMI 1640 medium with 2 % FBS. An MOI of 30 : 1 was used for all three Leishmania strains. […] The treated plates were incubated for 72 hours. After incubation, the plates were gently washed three times with PBS to remove any remaining extracellular parasites. The wells were then treated with 20 μL of 0.05 % sodium dodecyl sulphate in PBS for 30 seconds to lyse the host macrophages. Lysis was terminated by adding 180 μL promastigote growth medium with 10 % FBS. […] Absorbance measurements, calculations and IC50 determinations were performed as described for the antipromastigote assay (Supporting Information).

Another data set in a line: in vitro. Conditions: human, Cytotoxicity, HEK‐293, IC50±SD.
The subject of data set [6] is L. major IR‐173 amastigotes. Briefly: Anti‐amastigote assay, intramacrophage (THP‐1), resazurin. The data set is classed as cell-based, Leishmania major. Conditions: Leishmania major, THP-1, L. major IR‐173 intramacrophage amastigotes; read-out: Anti‐amastigote activity, IC50 ±SD, IR‐173. As for the experimental part: as §2
The conditions of data set [7]: during therapy ref 19; cited from earlier work.
For data set [8] the following is noted: cited from earlier work.

Converted amounts (≈) assume the structure as drawn. Some results are limits rather than exact numbers.

For the compound `CC(C)c1ccc(Cn2cc(CN3C(=O)CN(/N=C/c4ccc([N+](=O)[O-])o4)C3=O)nn2)cc1` [Compound 13], the IC50 in data set [1] was 0.57 ± 0.01 µM; in the data set on HEK‐293 cells it was 7.27 ± 0.93 µM; in data set [3], under 10 µM; in data set [5], 9.13 µM. Further, in data set [2], the IC50 at 72 h is over 100 µM. Moreover, in data set [4], the “Antipromastigote activity, IC50 ±SD, 9515” value is “inactive”. Also, the “Selectivity index SI2” value in data set [5] (L. donovani 9515: IC50 HEK‐293/IC50 amastigote) is 1. Also, the “Selectivity index SI4” value in data set [5] is on record as over 11.
In the case of `O=C(N/N=C/c1ccc([N+](=O)[O-])o1)c1ccc(O)cc1` [NFX, nifuroxazide, reference compound], the IC50 was over 10 µM in data set [1]; over 100 µM in “in vitro”; over 10 µM in data set [6]; 4.48 ± 0.1 µM in data set [4]; 7.29 ± 0.39 µM in data set [5]. In [2], the IC50 at 72 h is over 100 µM. Moreover, the “Selectivity index SI4” value in data set [5] is given as over 14. For the same compound, the “Specificity index SpI2” value in data set [5] (L. donovani 9515: IC50 promastigote/IC50 amastigote) worked out at 0.6.
In the case of `O=C1CN(/N=C/c2ccc([N+](=O)[O-])o2)C(=O)N1` [NFT, nitrofurantoin, reference compound], the IC50 is over 10 µM in [1]; over 100 µM in the data set “in vitro”; over 10 µM in [6]; over 10 µM in data set [4]; 9.92 ± 0.11 µM in data set [5]. Further, the IC50 at 72 h in data set [2] was over 100 µM. Further, the excreted unchanged in data set [7] is recorded as 33%. For the same compound, the “solubility in DMF” value in data set [8] (DMF) was 50 mg/mL (≈ 210 mM). Moreover, the “solubility in DMSO” value in [8] (DMSO) was 25 mg/mL (≈ 105 mM). Also, the solubility in water in [8] (water ref 26) is reported as 0.19 mg/mL (≈ 0.798 mM). In addition, the “Selectivity index SI4” value in data set [5] is over 10.

The IC50 is the concentration that gives 50% inhibition.

Source of the values: publication PMC9322565 (Chemmedchem, 2022).
